In patent US10357576B2, “18F-labelled folate/antifolate analogues” (MERCK & CIE, priority 2012, dated 2019):

System: KB tumor xenografts
Assay: Biodistribution studies in nude mice bearing KB tumor xenografts
Type: in vivo, nude mice (CD-1 Foxn-1/nu)
From the text: In vivo experiments were approved by the local veterinarian department and conducted in accordance to the Swiss law of animal protection. Six to eight-week-old female, athymic nude mice (CD-1 Foxn-1/nu) were purchased from Charles River Laboratories (Sulzfeld, Germany). The animals were fed with a folate-deficient rodent diet starting 5 days prior to the tumor cell inoculation. Mice were inoculated with KB cells (5×10^6 cells in […] PBS) into the subcutis of each shoulder. Animal experiments were performed approximately 14 days after tumor cell inoculation. Biodistribution studies were performed in triplicate. [^18F]-3′-aza-2′-fluorofolic acid was diluted in PBS pH 7.4 to the desired radioactivity concentration (˜5 MBq per mouse) for immediate administration via a lateral tail vein.
[…] Selected tissues and organs were collected, weighed, and counted for radioactivity in a −counter. The results were listed as percentage of the injected dose per gram of tissue weight [% ID/g], using reference counts from a definite sample of the original injectate that was counted at the same time.
The obtained are summarized in Table 2 and represent the percentage injected dose per gram tissue [% ID/g] averaged from three or four animals (Table 2).

[1] = 60 min p.i. blockade (100 μg folic acid 10 min before radiotracer)

% ID/g in Blood (30 min p.i., i.v.): 1.2 ± 0.3 % ID/g
% ID/g in Bone (30 min p.i., i.v.): 2.1 ± 0.3 % ID/g
% ID/g in Feces (30 min p.i., i.v.): 1.2 ± 0.2 % ID/g
% ID/g in Gallbladder (30 min p.i., i.v.): 8.1 ± 2.9 % ID/g
% ID/g in Heart (30 min p.i., i.v.): 2.1 ± 0.2 % ID/g
% ID/g in Intestine (30 min p.i., i.v.): 1.4 ± 0.1 % ID/g
% ID/g in Kidneys (30 min p.i., i.v.): 54.8 ± 6.1 % ID/g
% ID/g in Liver (30 min p.i., i.v.): 13.7 ± 2.9 % ID/g
% ID/g in Lungs (30 min p.i., i.v.): 2.0 ± 0.3 % ID/g
% ID/g in Muscle (30 min p.i., i.v.): 1.7 ± 0.4 % ID/g
% ID/g in Salivary glands (30 min p.i., i.v.): 9.0 ± 1.3 % ID/g
% ID/g in Spleen (30 min p.i., i.v.): 1.3 ± 0.2 % ID/g
% ID/g in Stomach (30 min p.i., i.v.): 2.8 ± 0.5 % ID/g
% ID/g in Tumor (30 min p.i., i.v.): 11.7 ± 0.9 % ID/g
Ratio Tumor/Blood (30 min p.i., i.v.): 11.1 ± 4.1
Ratio Tumor/Kidneys (30 min p.i., i.v.): 0.2 ± 0.1
Ratio Tumor/Liver (30 min p.i., i.v.): 0.9 ± 0.2
% ID/g in Blood [1]: 0.8 ± 0.3 % ID/g
% ID/g in Bone [1]: 0.6 ± 0.3 % ID/g
% ID/g in Feces [1]: 6.0 ± 1.1 % ID/g
% ID/g in Gallbladder [1]: 15.8 ± 9.3 % ID/g
% ID/g in Heart [1]: 0.4 ± 0.2 % ID/g
% ID/g in Intestine [1]: 1.3 ± 0.6 % ID/g
% ID/g in Kidneys [1]: 5.9 ± 4.5 % ID/g
% ID/g in Liver [1]: 10.9 ± 3.4 % ID/g
% ID/g in Lungs [1]: 0.7 ± 0.3 % ID/g
% ID/g in Muscle [1]: 0.3 ± 0.1 % ID/g
% ID/g in Salivary glands [1]: 0.6 ± 0.2 % ID/g
% ID/g in Spleen [1]: 0.4 ± 0.2 % ID/g
% ID/g in Stomach [1]: 0.6 ± 0.3 % ID/g
% ID/g in Tumor [1]: 1.7 ± 0.4 % ID/g
Ratio Tumor/Blood [1]: 2.2 ± 0.3
Ratio Tumor/Kidneys [1]: 0.4 ± 0.2
Ratio Tumor/Liver [1]: 0.2 ± 0.1
% ID/g in Blood (60 min p.i., i.v.): 0.6 ± 0.1 % ID/g
% ID/g in Bone (60 min p.i., i.v.): 1.6 ± 0.3 % ID/g
% ID/g in Feces (60 min p.i., i.v.): 3.0 ± 2.0 % ID/g
% ID/g in Gallbladder (60 min p.i., i.v.): 8.4 ± 1.8 % ID/g
% ID/g in Heart (60 min p.i., i.v.): 1.9 ± 0.3 % ID/g
% ID/g in Intestine (60 min p.i., i.v.): 1.9 ± 0.2 % ID/g
% ID/g in Kidneys (60 min p.i., i.v.): 53.6 ± 3.2 % ID/g
% ID/g in Liver (60 min p.i., i.v.): 10.6 ± 0.9 % ID/g
% ID/g in Lungs (60 min p.i., i.v.): 1.5 ± 0.2 % ID/g
% ID/g in Muscle (60 min p.i., i.v.): 1.2 ± 0.2 % ID/g
% ID/g in Salivary glands (60 min p.i., i.v.): 15.0 ± 6.1 % ID/g
% ID/g in Spleen (60 min p.i., i.v.): 1.9 ± 0.1 % ID/g
% ID/g in Stomach (60 min p.i., i.v.): 2.8 ± 0.9 % ID/g
% ID/g in Tumor (60 min p.i., i.v.): 11.9 ± 1.7 % ID/g
Ratio Tumor/Blood (60 min p.i., i.v.): 21.6 ± 2.3
Ratio Tumor/Kidneys (60 min p.i., i.v.): 0.2 ± 0.1
Ratio Tumor/Liver (60 min p.i., i.v.): 1.1 ± 0.2
% ID/g in Blood (90 min p.i., i.v.): 0.6 ± 0.1 % ID/g
% ID/g in Bone (90 min p.i., i.v.): 1.6 ± 0.3 % ID/g
% ID/g in Feces (90 min p.i., i.v.): 1.8 ± 0.3 % ID/g
% ID/g in Gallbladder (90 min p.i., i.v.): 9.3 ± 0.6 % ID/g
% ID/g in Heart (90 min p.i., i.v.): 1.8 ± 0.1 % ID/g
% ID/g in Intestine (90 min p.i., i.v.): 2.3 ± 0.4 % ID/g
% ID/g in Kidneys (90 min p.i., i.v.): 57.3 ± 8.4 % ID/g
% ID/g in Liver (90 min p.i., i.v.): 10.3 ± 2.4 % ID/g
% ID/g in Lungs (90 min p.i., i.v.): 1.6 ± 0.3 % ID/g
% ID/g in Muscle (90 min p.i., i.v.): 1.5 ± 0.4 % ID/g
% ID/g in Salivary glands (90 min p.i., i.v.): 14.1 ± 0.9 % ID/g
% ID/g in Spleen (90 min p.i., i.v.): 2.2 ± 0.2 % ID/g
% ID/g in Stomach (90 min p.i., i.v.): 2.7 ± 0.1 % ID/g
% ID/g in Tumor (90 min p.i., i.v.): 12.6 ± 1.8 % ID/g
Ratio Tumor/Blood (90 min p.i., i.v.): 23.8 ± 4.1
Ratio Tumor/Kidneys (90 min p.i., i.v.): 0.2 ± 0.1
Ratio Tumor/Liver (90 min p.i., i.v.): 1.3 ± 0.4
Compound: Nc1nc2ncc(CNc3ccc(C(=O)N[C@@H](CCC(=O)O)C(=O)O)c([18F])n3)nc2c(=O)[nH]1 [3′-aza-2′-[^18F]fluorofolic acid]
